Assay results taken from patent publication US20200390100A1, “SUBSTITUTED N-HETEROCYCLYL- AND N-HETEROARYL-TETRAHYDROPYRIMIDINONES AND THE SALTS THEREOF, AND THE USE OF SAME AS HERBICIDAL ACTIVE SUBSTANCES” (Bayer Aktiengesellschaft, priority 2017, published 2020).

What was measured:
Abutilon theophrasti [1] = assay: Pre-emergence herbicidal action, greenhouse, 320 g/ha; assay type: in vivo; details: application rate 320 g/ha, scored visually after about 3 weeks vs untreated controls
How it was run: (§1)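 Soil-surface application onto covered seeds; WP or EC formulation with 0.5% additive in aqueous spray; visual rating at ~3 weeks, 0–100% vs untreated plants.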

Alopecurus myosuroides = assay: as above; assay type: in vivo; details: application rate 320 g/ha, scored visually after about 3 weeks vs untreated controls
How it was run: as §1

Amaranthus retroflexus [2] = assay: as above; assay type: in vivo; details: application rate 320 g/ha, scored visually after about 3 weeks vs untreated controls
How it was run: as §1

Avena fatua = assay: as above; assay type: in vivo; details: application rate 320 g/ha, scored visually after about 3 weeks vs untreated controls
How it was run: as §1

Echinochloa crus-galli [3] = assay: as above; assay type: in vivo; details: application rate 320 g/ha, scored visually after about 3 weeks vs untreated controls
How it was run: as §1

Hordeum murinum = assay: as above; assay type: in vivo; details: application rate 320 g/ha, Table B14
How it was run: as §1

Matricaria inodora [4] = assay: as above; assay type: in vivo; details: application rate 320 g/ha, scored visually after about 3 weeks vs untreated controls
How it was run: as §1

Pharbitis purpurea [5] = assay: as above; assay type: in vivo; details: application rate 320 g/ha, Table B12
How it was run: as §1

Polygonum convolvulus = assay: as above; assay type: in vivo; details: application rate 320 g/ha, scored visually after about 3 weeks vs untreated controls
How it was run: as §1

Setaria viridis [6] = assay: as above; assay type: in vivo; details: application rate 320 g/ha, Table B11
How it was run: as §1

Stellaria media [7] = assay: as above; assay type: in vivo; details: application rate 320 g/ha, scored visually after about 3 weeks vs untreated controls
How it was run: as §1

Viola tricolor = assay: as above; assay type: in vivo; details: application rate 320 g/ha, Table B8
How it was run: as §1

photosystem II (PS II) = target: T1, photosystem II (PS II) (Spinacia oleracea, UniProt P69560); assay: Measurement of PS II activity in thylakoid membranes (DCPIP reduction); assay type: biochemical, spinach; details: PS II activity in spinach thylakoid membranes, Table E1; read-out: Effect
T1 construct: the chloroplasts were osmotically ruptured and the thylakoid membranes were then obtained by centrifugation; from tissue; host or cells: fresh spinach leaves; thylakoid membrane preparation from isolated chloroplasts
Description: Cooled fresh spinach leaves were comminuted and homogenized in 50 mM phosphate buffer, pH 6.8. 10 mM KCl, 0.34 M sucrose (sucrose buffer) (blender, 1 g of plant material/ml). The homogenate was subsequently filtered through 4 layers of Miracloth and the chloroplasts were isolated by centrifugation, i.e. 10 min of centrifugation at 4400×g (4° C.). The sediment was suspended in 25 ml of sucrose buffer and re-centrifuged for 10 min at 4400×g (4° C.). The sediment was then suspended in 40 ml of 50 mM phosphate buffer, pH 6.8, 10 mM KCl, without sucrose. In this step, the chloroplasts were osmotically ruptured and the thylakoid membranes were then obtained by centrifugation (10 min, 4400×g, 4° C.). The membrane sediment was finally suspended in about 20 ml of 50 mM phosphate buffer, pH 6.8, 10 mM KCl. Following protein determination and activity determination, the membrane suspension was divided into aliquots and frozen in liquid nitrogen. The aliquots were stored at −80° C. Under these conditions, the photosystem II preparation was storage stable for at least three months. The activity determination of photosystem II (PS II) was then carried out using the following test principle: The electron transfer from PS II to an artificial electron acceptor, 2,6-dichlorophenolindophenol (DCPIP), was measured with exposure to light. The concentration of the blue oxidized form of DCPIP was determined spectrophotometrically at wavelength λ=595 nm. […] The activity determination is carried out in microtiter plates (96 cavities) in a reaction volume of 200 μl. Here, 155 μl of dilute membrane suspension were initially charged in 50 mM of phosphate buffer, pH 6.8, 10 mM KCl. Depending on the activity of the PS II preparation, the dilution was adjusted such that the measurement of the decrease in absorption (λ=595 nm) was linear for at least 10 min. In each case 5 μl solutions of the test compounds of a concentration of 100 μM in DMSO were added to the enzyme suspension; controls contained 5 μl of DMSO; the final concentration of DMSO in the reaction batch was thus 2.5% (v/v); this concentration had no adverse effect on the enzymatic activity. On each microtiter plate, a known PS II inhibitor, for example metribuzin, was used as standard, which allowed the quality of the PS II test to be assessed. The reaction was started by addition of 40 μl DCPIP solution (600 μM in distilled water); the final concentration of DCPIP was 120 μM. Measurement of absorption is carried out over a period of 10 min at 22° C. and with exposure to light. Using metribuzin as comparative substance, the results for the efficacy of the compounds of the general formula (I) at 100 μM are stated in the table below using the following classification: ++++(inhibition≥90%), +++(90%>inhibition≥70%), ++(70%>inhibition≥50%), +(50%>inhibition≥30%).

Amaranthus retroflexus [8] = assay: Herbicidal post-emergence action (Part 2), 1280 g/ha; assay type: in vivo; details: application rate 1280 g/ha, rated visually after about 3 weeks, Table C5
How it was run: (§2)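 Plants at the one-leaf stage were treated on green parts with wettable powder or emulsion concentrate preparations diluted in water containing 0.5% additive. Effects were judged by eye after about 3 weeks in the greenhouse, relative to untreated plants.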

Stellaria media [9] = assay: as above; assay type: in vivo; details: application rate 1280 g/ha, rated visually after about 3 weeks, Table C7
How it was run: as §2

Amaranthus retroflexus [10] = assay: Herbicidal pre-emergence action (Part 2), 1280 g/ha; assay type: in vivo; details: application rate 1280 g/ha, scored visually after about 3 weeks, Table D6
How it was run: (§3)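 Surface soil treatment over sown weed seeds in sandy loam used formulated compound in water with 0.5% additive at a 600 L/ha spray volume. Effect was rated visually in percent versus untreated plants after about three weeks of greenhouse growth.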

Lolium rigidum = assay: as above; assay type: in vivo; details: application rate 1280 g/ha, scored visually after about 3 weeks, Table D2
How it was run: as §3

Matricaria inodora [11] = assay: as above; assay type: in vivo; details: application rate 1280 g/ha, scored visually after about 3 weeks, Table D7
How it was run: as §3

Poa annua [12] = assay: as above; assay type: in vivo; details: application rate 1280 g/ha, scored visually after about 3 weeks, Table D3
How it was run: as §3

Stellaria media [13] = assay: as above; assay type: in vivo; details: application rate 1280 g/ha, scored visually after about 3 weeks, Table D8
How it was run: as §3

Abutilon theophrasti [14] = assay: Herbicidal post-emergence action (Part 2), 1280 g/ha; assay type: in vivo; details: application rate 1280 g/ha, rated visually after about 3 weeks, Table C4
How it was run: as §2

Matricaria inodora [15] = assay: as above; assay type: in vivo; details: application rate 1280 g/ha, rated visually after about 3 weeks, Table C6
How it was run: as §2

Abutilon theophrasti [16] = assay: Herbicidal pre-emergence action (Part 2), 1280 g/ha; assay type: in vivo; details: application rate 1280 g/ha, scored visually after about 3 weeks, Table D5
How it was run: as §3

Echinochloa crus-galli [17] = assay: as above; assay type: in vivo; details: application rate 1280 g/ha, scored visually after about 3 weeks, Table D1
How it was run: as §3

Setaria viridis [18] = assay: as above; assay type: in vivo; details: application rate 1280 g/ha, scored visually after about 3 weeks, Table D4
How it was run: as §3

Echinochloa crus-galli [19] = assay: Herbicidal post-emergence action (Part 2), 1280 g/ha; assay type: in vivo; details: post-emergence (Part 2), application rate 1280 g/ha, rated visually after about 3 weeks vs untreated controls
How it was run: as §2

Poa annua [20] = assay: as above; assay type: in vivo; details: application rate 1280 g/ha, rated visually after about 3 weeks, Table C2
How it was run: as §2

Abutilon theophrasti [21] = assay: Post-emergence herbicidal action, greenhouse, 320 g/ha; assay type: in vivo; details: application rate 320 g/ha, rated visually after about 3 weeks vs untreated controls
Description: (§4) Seeds of monocotyledonous and dicotyledonous weeds and crop plants were placed in sandy loam in plastic or wood-fiber pots, covered with soil and cultivated in a greenhouse under controlled growth conditions. 2 to 3 weeks after sowing, the test plants were treated at the one-leaf stage. The compounds of the invention, formulated in the form of wettable powders (WP) or as emulsion concentrates (EC), were then sprayed onto the green parts of the plants as aqueous suspension or emulsion with addition of 0.5% additive at a water application rate of […] (converted). After the test plants had been kept in the greenhouse under optimum growth conditions for about 3 weeks, the activity of the preparations was rated visually in comparison to untreated controls. For example, 100% activity=the plants have died, 0% activity=like control plants. Tables A1 to A14 below show the effects of selected compounds of the general formula (I) according to Tables 1.1 to 1.150 on various harmful plants and at an application rate corresponding to 320 g/ha, which were obtained by the experimental procedure mentioned above.

Amaranthus retroflexus [22] = assay: as above; assay type: in vivo; details: application rate 320 g/ha, rated visually after about 3 weeks vs untreated controls
Description: as §4

Pharbitis purpurea [23] = assay: as above; assay type: in vivo; details: application rate 320 g/ha, rated visually after about 3 weeks vs untreated controls
Description: as §4

| SMILES | Amaranthus retroflexus (Amaranthus retroflexus [8]) [%] | Stellaria media (Stellaria media [9]) [%] | Amaranthus retroflexus (Amaranthus retroflexus [10]) [%] | Lolium rigidum (Lolium rigidum) [%] | Matricaria inodora (Matricaria inodora [11]) [%] | Poa Annua (Poa annua [12]) [%] | Stellaria media (Stellaria media [13]) [%] | Abutilon theophrasti (Abutilon theophrasti [14]) [%] | Matricaria inodora (Matricaria inodora [15]) [%] | Abutilon theophrasti (Abutilon theophrasti [16]) [%] | Echinochloa crus-galli (Echinochloa crus-galli [17]) [%] | Setaria viridis (Setaria viridis [18]) [%] | further results |
| --- | --- | --- | --- | --- | --- | --- | --- | --- | --- | --- | --- | --- | --- |
| CN1CCC(O)N(c2cc(C(C)(C)C)on2)C1=O (stereo not shown) [I.1-162, 3-(5-tert-Butyl-1,2-oxazol-3-yl)-4-hydroxy-1-methyltetrahydropyrimidin-2(1H)-one] | – | – | – | – | – | – | – | – | – | – | – | – | Abutilon theophrasti (efficacy in %) (Abutilon theophrasti [1]): 100%; Alopecurus myosuroides (efficacy in %) (Alopecurus myosuroides): 90%; Amaranthus retroflexus (efficacy in %) (Amaranthus retroflexus [2]): 100%; Avena fatua (efficacy in %) (Avena fatua): 90%; Echinochloa crus-galli (efficacy in %) (Echinochloa crus-galli [3]): 80%; Hordeum murinum (efficacy in %) (Hordeum murinum): 90%; Matricaria inodora (efficacy in %) (Matricaria inodora [4]): 100%; Pharbitis purpurea (efficacy in %) (Pharbitis purpurea [5]): 80%; Polygonum convolvulus (efficacy in %) (Polygonum convolvulus): 90%; Setaria viridis (efficacy in %) (Setaria viridis [6]): 90%; Stellaria media (efficacy in %) (Stellaria media [7]): 90%; Viola tricolor (efficacy in %) (Viola tricolor): 90%; inhibition at 100 µM (photosystem II (PS II)): > 90% |
| CC(=O)OC1CCN(C)C(=O)N1c1cc(C(F)(F)F)ccn1 (stereo not shown) [I.2-449] | 100 | 100 | 100 | 90 | 100 | 100 | 100 | – | – | – | – | – | – |
| CC(C)C(=O)OC1CCN(C)C(=O)N1c1cc(C(C)(C)C)no1 (stereo not shown) [I.5-290, 3-(3-tert-Butyl-1,2-oxazol-5-yl)-1-methyl-2-oxohexahydropyrimidin-4-yl 2-methylpropanoate] | 100 | 100 | 100 | – | 90 | 90 | 100 | 100 | 100 | 100 | 90 | 90 | – |
| CC(C)CC(=O)OC1CCN(C)C(=O)N1c1cc(C(C)(C)C)no1 (stereo not shown) [I.7-290] | 100 | – | 100 | – | 100 | 90 | 100 | 100 | – | 100 | – | – | Echinochloa crus-galli (Echinochloa crus-galli [19]): 100% |
| CC(=O)OC1N(c2cc(C(C)(C)C)on2)C(=O)N(C)CC1(C)C (stereo not shown) [I.62-162] | 100 | – | 100 | – | 100 | 100 | 100 | 100 | 100 | 100 | 90 | 100 | Poa Annua (Poa annua [20]): 100% |
| CC(C)(C)c1cc(N2C(=O)N3CCCC3CC2O)no1 (stereo not shown) [I.121-162] | – | – | 100 | 90 | 100 | 100 | 100 | – | – | 100 | 100 | 100 | Abutilon theophrasti (efficacy in %) (Abutilon theophrasti [21]): 80%; Amaranthus retroflexus (efficacy in %) (Amaranthus retroflexus [22]): 100%; Pharbitis purpurea (efficacy in %) (Pharbitis purpurea [23]): 80% |
